Data as given in patent US20230118682A1, “MODIFIED J-AGGREGATES AND CONJUGATES THEREOF” (GEORGE MASON UNIVERSITY, priority 2021, published 2023).
“And” between values parts separate entries of the source, which are not always exact repeats. Identical values can stand only once.

What was measured:
[1] = in vivo
Procedure: (§1) We first acquired multiwavelength images of microcuvette tubes containing 0.4 mM of ICG dye or RGD-JAAZ particles to evaluate the PA spectra of both contrast agents. […] For in vivo imaging experiments, multispectral PAI were acquired in two female nu/nu nude mice at various timepoints (0, 10, 90 min) following tail-vein administration of ICG dye and RGD-JAAZ particles (FIGS. 39A-39D). A pre-injection baseline PA signal at 895 nm was also acquired for reference (FIG. 39B). […] Molecular maps were generated from a linear spectral unmixing of the multiwavelength PA images using previously reported spectra for hemoglobin and the measured spectra of the RGD-JAAZ particles at their injection concentration.

[2] = Phantom PA spectra on TriTom imaging system; conditions: 0.4 mM in microcuvette tubes
Procedure: as §1

[3] = Fluorescence measurements; assay type: physicochemical; conditions: excitation 720 nm, emission 770-850 nm
Procedure: Fluorescence measurements: Fluorescence intensity of different concentrations of free ICG dye and J-aggregates was recorded using a Tecan Safire^2™ (Mannendorf, Switzerland) fluorescence microplate reader. Both free ICG dye and J-aggregate particles were excited at 720 nm with an emission at 770 nm. The fluorescence emission spectrum was recorded from 770 to 850 nm with a step size of 2 nm.

[4] = Photoacoustic signal relative to whole blood; parameters: species or system sheep; conditions: 20 μM, excited at 895 nm, PTFE tubing
Procedure: Photoacoustic Measurement: The 96-well plate was secured to the bottom of a plastic water reservoir. The reservoir was filled with deionized water, completely submerging the sample. For comparison of smaller volumes, 2-inch segments of 24-gauge PTFE tubing ([…]) was filled with various samples. The tubes were placed in a clear acrylic chamber submerging the samples in deionized water. A single element piezoelectric 35 MHz or 5 MHz focused transducer (V326, Olympus, Mass., USA) was fixed at 12 mm or 45 mm above each sample with their functional element submerged in deionized water. […] The photoacoustic signal recorded from the transducer is sent to a 20/40db amplifier (HVA-200M, Femto) from there the signal is recorded through a lock-in amplifier (Zurich Instruments, Zurich, Switzerland) triggered on each laser pulse using a photodiode placed near the laser source. […] The absolute amplitude of each waveform was calculated, averaged, and normalized to the signal recorded from India ink or whole sheep's blood containing anticoagulant.
To explore the possibility of using JAAZ in vivo, the photoacoustic signal was compared to whole blood. […] PA signals were recorded from each sample and the signal amplitude was normalized to the whole-blood PA-signal amplitude (FIG. 5D). […]
The in-vitro photoacoustic (PA) properties of the N-JAAZ particles were further evaluated. […]

- half-life ([1]; female, nu/nu nude, mouse, in vivo): 1.19 ± 0.45 min
- fluorescence emission [3]: recordable fluorescence intensity
Compound: CC1(C)C(/C=C/C=C/C=C/C=C2\N(CCCCS(=O)(=O)O)c3ccc4ccccc4c3C2(C)C)=[N+](CCCCS(=O)(=O)[O-])c2ccc3ccccc3c21 [ICG, Indocyanine Green]
- Contrast-to-noise ratio ([1]; blood vessels, 90-minutes post-injection, n=2): 1.59
- peak PA signal wavelength (phantom) [2]: 740 nm and 780 nm
- PA signal relative to whole blood [4]: ~0.03 x
